What was measured:
[1] = target: PARP (Homo sapiens (Human), UniProt P09874); experiment: PARP assay (chemiluminescent PARP assay kit, Trevigen); type: biochemical; details: Table 12; for inhibition at 1 µM: read-out: PARP % inhib @ 1 uM; for inhibition at 20 µM: read-out: PARP % inhib @ 20 uM
Method: Modulatory activity of compounds described herein was assessed in vitro in cell-free CK2 assays. Modulatory activity of compounds described herein also are assessed in vitro in cell-free PARP assays. These assays are described hereafter.
PARP assays are conducted using a chemiluminescent PARP assay kit (Trevigen). Briefly, reactions are performed in Histone-coated strip wells, by adding 10 microliters test compound dissolved in 1×PARP Buffer (prepared by mixing 20×PARP buffer diluted with high-purity water) and 15 microliters diluted PARP-HSA enzyme (diluted in 1× PARP buffer, 0.1 unit per well) to 25 microliters PARP cocktail (prepared from 10×PARP cocktail and 10× activated DNA, both 2.5 microliters per well and 20 microliters per well of 1×PARP buffer). The reactions are incubated at ambient temperature for 60 minutes, then the liquid was removed. After washing the wells four times with PBS (200 ul), 50 microliters of STREP-HRP (Horseradish Peroxidase) solution (diluted 500-fold in 1× Strep-Diluent) was added and the reactions were allowed to incubate for 30 minutes at ambient temperature. The liquid was removed and, after washing the wells four times with PBS (200 ul), 50 microliters each of PeroxyGlo A and B (Chemiluminescent Horseradish Peroxidase substrates) are added and the resulting chemiluminescence quantified on the SpectraMax M5 plate reader.

[2] = test system: HCT-116 human colorectal carcinoma cells; experiment: Cell proliferation assay, Alamar Blue, HCT-116; type: cell-based;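 note: cells exposed to compound for about 4 days, then Alamar Blue added and fluorescence read after about 4 h, medium-only wells as control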
[3] = HCT-116, Table 16, first HCT-116 column
[4] = HCT-116, Table 16, second HCT-116 column

Sequence of PARP (P09874 whole entry): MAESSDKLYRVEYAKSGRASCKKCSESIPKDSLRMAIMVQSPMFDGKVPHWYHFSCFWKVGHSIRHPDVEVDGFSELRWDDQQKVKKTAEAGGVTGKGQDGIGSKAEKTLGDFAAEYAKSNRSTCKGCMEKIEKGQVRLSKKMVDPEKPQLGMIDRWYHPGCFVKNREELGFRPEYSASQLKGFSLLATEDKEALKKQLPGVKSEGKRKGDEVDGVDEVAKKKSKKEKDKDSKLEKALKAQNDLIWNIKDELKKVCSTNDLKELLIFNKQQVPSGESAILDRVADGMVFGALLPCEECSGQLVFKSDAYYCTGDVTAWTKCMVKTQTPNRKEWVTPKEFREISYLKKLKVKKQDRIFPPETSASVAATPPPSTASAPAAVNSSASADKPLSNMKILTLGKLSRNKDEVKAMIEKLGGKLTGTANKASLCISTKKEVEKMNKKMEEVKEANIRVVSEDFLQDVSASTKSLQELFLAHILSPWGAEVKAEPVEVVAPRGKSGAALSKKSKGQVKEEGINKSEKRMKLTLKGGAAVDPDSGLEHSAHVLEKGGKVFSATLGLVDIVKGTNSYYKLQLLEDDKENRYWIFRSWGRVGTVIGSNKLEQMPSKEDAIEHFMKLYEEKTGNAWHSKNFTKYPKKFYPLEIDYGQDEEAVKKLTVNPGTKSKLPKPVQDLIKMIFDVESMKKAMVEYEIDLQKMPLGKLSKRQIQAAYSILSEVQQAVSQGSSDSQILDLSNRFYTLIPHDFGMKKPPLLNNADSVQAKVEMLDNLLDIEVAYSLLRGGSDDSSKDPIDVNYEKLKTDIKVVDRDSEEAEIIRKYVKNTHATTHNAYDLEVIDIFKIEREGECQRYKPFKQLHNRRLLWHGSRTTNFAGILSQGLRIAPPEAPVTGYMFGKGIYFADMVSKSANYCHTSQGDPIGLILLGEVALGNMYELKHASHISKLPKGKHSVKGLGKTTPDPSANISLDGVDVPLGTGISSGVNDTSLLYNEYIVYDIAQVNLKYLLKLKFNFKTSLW

COc1ccccc1CNC(=O)c1ccc2c(c1)[nH]c(=O)c1ccsc12
inhibition at 1 µM [1]: 27%

COc1ccc(Nc2nc3cc(C(=O)O)ccc3c3sccc23)cc1Cl
IC50 [2, 3]: > 10 µM

CC(C)(C)OC(=O)NC1CCN(C(=O)c2ccc3c(c2)[nH]c(=O)c2ccsc23)CC1
inhibition at 1 µM [1]: 49%

COc1ccc(NC(=O)c2ccc3c(c2)[nH]c(=O)c2ccsc23)c(OC)c1
inhibition at 1 µM [1]: 0% | inhibition at 20 µM [1]: 32%

NC(=O)c1ccc2c(c1)nc(Nc1ccccc1)c1ccsc12
IC50 [2, 3]: 9 µM

NC(=O)c1ccc2c(c1)[nH]c(=O)c1ccsc12
inhibition at 1 µM [1]: 79% | IC50 [1]: 0.06 µM

CCc1cccc(Nc2nc3cc(-c4nnn[nH]4)ccc3c3sccc23)c1
IC50 [2, 4]: > 10 µM

O=C(O)CNC(=O)c1ccc2c(c1)[nH]c(=O)c1ccsc12
inhibition at 1 µM [1]: 31% | inhibition at 20 µM [1]: 97%

Cc1cc(CNC(=O)c2ccc3c(c2)[nH]c(=O)c2ccsc23)no1
inhibition at 1 µM [1]: 67% | IC50 [1]: 0.5 µM

CN(C)CCn1c(=O)c2ccsc2c2ccc(C(=O)O)cc21
inhibition at 1 µM [1]: 5%

COc1ccccc1Nc1nc2cc(C(=O)O)ccc2c2sccc12
IC50 [2, 3]: > 10 µM

O=C(O)c1ccc2c(c1)nc(OCCCO)c1ccsc12
IC50 [2, 3]: > 10 µM

O=C(NCc1ccncc1)c1ccc2c(c1)[nH]c(=O)c1ccsc12
inhibition at 1 µM [1]: 75% | IC50 [1]: 1 µM

O=C(Nc1ccc(CN2CCS(=O)(=O)CC2)cc1)c1ccc2c(c1)[nH]c(=O)c1ccsc12
inhibition at 1 µM [1]: 29%

O=C(NCCc1cnc[nH]1)c1ccc2c(c1)[nH]c(=O)c1ccsc12
inhibition at 1 µM [1]: 83% | inhibition at 20 µM [1]: 97% | IC50 [1]: 0.2 µM

CN(C)CCNc1nc2cc(C#N)ccc2c2cnccc12
IC50 ([2]; HCT-116, Table 18): 1.6 µM

O=C(Nc1ccccc1)c1ccc2c(c1)[nH]c(=O)c1ccsc12
inhibition at 1 µM [1]: 0% | inhibition at 20 µM [1]: 22%

O=C(NCc1ccccn1)c1ccc2c(c1)[nH]c(=O)c1ccsc12
inhibition at 1 µM [1]: 71% | IC50 [1]: 1 µM

O=c1[nH]c(-c2ccc3c(c2)nc(Nc2ccccc2)c2ccsc23)no1
IC50 [2, 3]: > 10 µM

O=C(O)c1ccc2c3sccc3c(=O)n(CCCO)c2c1
inhibition at 1 µM [1]: 21%

O=c1[nH]c2ccccc2c2sccc12
inhibition at 20 µM [1]: 0%

O=C(O)c1ccc2c(c1)nc(NCCN1CCCC1)c1ccsc12
IC50 [2, 3]: > 10 µM

CN(C)CCNC(=O)c1cccc(Nc2nc3cc(C(=O)O)ccc3c3sccc23)c1
IC50 [2, 4]: > 10 µM

O=C(c1ccc2c(c1)[nH]c(=O)c1ccsc12)N1CCOCC1
inhibition at 1 µM [1]: 82% | inhibition at 20 µM [1]: 95% | IC50 [1]: 0.4 µM

O=C(O)c1ccc2c(c1)nc(Nc1ccc(N3CCOCC3)cc1)c1ccsc12
IC50 [2, 3]: > 10 µM

O=C(O)c1ccc2c(c1)nc(NCCCO)c1ccsc12
IC50 [2, 3]: > 10 µM

O=C(Nc1ccc(Cl)cc1)c1ccc2c(c1)[nH]c(=O)c1ccsc12
inhibition at 1 µM [1]: 0% | inhibition at 20 µM [1]: 55%

O=C(O)c1ccc2c(c1)nc(Nc1nc3ccccc3[nH]1)c1ccsc12
IC50 [2, 3]: > 10 µM

O=C(O)CNC(=O)c1cccc(Nc2nc3cc(C(=O)O)ccc3c3sccc23)c1
IC50 [2, 4]: > 10 µM

Clc1nc2ccccc2c2sccc12
IC50 [2, 3]: > 10 µM

COC(=O)c1ccccc1NC(=O)c1ccc2c(c1)[nH]c(=O)c1ccsc12
inhibition at 1 µM [1]: 24%

CC(C)(C)OC(=O)CCNC(=O)c1ccc2c(c1)[nH]c(=O)c1ccsc12
inhibition at 1 µM [1]: 40% | inhibition at 20 µM [1]: 82%

Cc1ccccc1Nc1nc2cc(C(=O)O)ccc2c2sccc12
IC50 [2, 3]: > 10 µM

O=C(NCCN1CCOCC1)c1ccc2c(c1)[nH]c(=O)c1ccsc12
inhibition at 1 µM [1]: 77% | inhibition at 20 µM [1]: 96% | IC50 [1]: 0.5 µM

c1cc2c(Nc3ccc4c(c3)OCCO4)nc3cc(-c4nnn[nH]4)ccc3c2s1
IC50 [2, 4]: > 10 µM

O=C(O)c1ccc2c(c1)nc(NCCO)c1ccsc12
IC50 [2, 3]: > 10 µM

O=C(O)c1ccc2c(c1)nc(NCc1ccccn1)c1ccsc12
IC50 [2, 3]: > 10 µM

CN(C)CCNc1nc2cc(-c3nnn[nH]3)ccc2c2sccc12
IC50 [2, 3]: > 10 µM

c1ccc(Nc2nc3ccccc3c3sccc23)cc1
IC50 [2, 3]: > 10 µM

O=C(Nc1ccc(N2CCOCC2)cc1)c1ccc2c(c1)[nH]c(=O)c1ccsc12
inhibition at 1 µM [1]: 0% | inhibition at 20 µM [1]: 37%

O=c1[nH]c2cc(CO)ccc2c2sccc12
inhibition at 1 µM [1]: 74% | IC50 [1]: 0.4 µM

Clc1ccc(Nc2nc3cc(-c4nnn[nH]4)ccc3c3sccc23)cc1
IC50 [2, 3]: > 10 µM

COC(=O)c1ccc2c(c1)nc(Cl)c1ccsc12 [drawing 842]
IC50 [2, 3]: > 10 µM

N#Cc1ccc2c(c1)nc(Nc1ccccc1)c1ccsc12
IC50 [2, 3]: > 10 µM

N#Cc1ccc2c(c1)nc(Cl)c1ccsc12
IC50 [2, 3]: > 10 µM

COc1cccc(Nc2nc3cc(-c4nnn[nH]4)ccc3c3sccc23)c1
IC50 [2, 3]: > 10 µM

Fc1ccc(Nc2nc3cc(-c4nnn[nH]4)ccc3c3sccc23)cc1Cl
IC50 [2, 3]: > 10 µM

O=C(O)c1ccc2c(c1)nc(NCc1ccncc1)c1ccsc12
IC50 [2, 3]: > 10 µM

CCN(c1ccccc1)c1nc2cc(C(=O)O)ccc2c2sccc12
IC50 [2, 3]: > 10 µM

O=C(O)c1ccc2c(c1)nc(Nc1ccccc1O)c1ccsc12
IC50 [2, 3]: > 10 µM

CCCNC(=O)c1cccc(Nc2nc3cc(C(=O)O)ccc3c3sccc23)c1
IC50 [2, 4]: > 10 µM

CC(C)Oc1cccc(Nc2nc3cc(-c4nnn[nH]4)ccc3c3sccc23)c1
IC50 [2, 4]: > 10 µM

O=C(O)c1ccc2c(c1)nc(Nc1ccc(F)cc1)c1ccsc12
IC50 [2, 3]: > 10 µM

O=C(O)c1ccc2c(c1)nc(N1CCOCC1)c1ccsc12
IC50 [2, 3]: > 10 µM

CN(c1ccccc1)c1nc2cc(C(=O)O)ccc2c2sccc12
IC50 [2, 3]: > 10 µM

CCOc1cccc(Nc2nc3cc(-c4nnn[nH]4)ccc3c3sccc23)c1
IC50 [2, 4]: > 10 µM

C#Cc1cccc(Nc2nc3cc(C(=O)O)ccc3c3sccc23)c1 [drawing 967]
IC50 [2, 4]: > 10 µM

O=C(O)CNc1nc2cc(C(=O)O)ccc2c2sccc12
IC50 [2, 3]: > 10 µM

O=C(O)c1ccc2c(c1)nc(Nc1ccc(F)cc1F)c1ccsc12
IC50 [2, 3]: > 10 µM

COc1cc(Nc2nc3cc(-c4nnn[nH]4)ccc3c3sccc23)ccc1F
IC50 [2, 4]: > 10 µM

CNc1ncc2c(n1)c(NC1CC1)nc1cc(C(=O)O)ccc12
IC50 ([2]; HCT-116, Table 18): > 10 µM

O=C(O)c1ccc2c(c1)nc(NCc1cccnc1)c1ccsc12
IC50 [2, 3]: > 10 µM

COc1ccc(OC)c(Nc2nc3cc(C(=O)O)ccc3c3sccc23)c1
IC50 [2, 3]: > 10 µM

COC(=O)c1ccc2c(c1)nc(Nc1ccccc1)c1ncsc12
IC50 [2, 4]: > 10 µM

O=C(O)c1ccc2c(c1)nc(Nc1cccc(C(=O)N3CCOCC3)c1)c1ccsc12
IC50 [2, 4]: > 10 µM

CN(C)CCNc1nc2cc(-c3nnn[nH]3)ccc2c2cnccc12
IC50 ([2]; HCT-116, Table 18): > 10 µM

COc1ccc(Nc2nc3cc(-c4nnn[nH]4)ccc3c3sccc23)cc1Cl
IC50 [2, 3]: > 10 µM

COC(=O)c1ccc2c(c1)nc(Nc1ccccc1)c1ccsc12
IC50 [2, 3]: > 10 µM

Fc1ccc(Nc2nc3cc(-c4nnn[nH]4)ccc3c3sccc23)cc1
IC50 [2, 3]: > 10 µM

O=C(O)c1ccc2c(c1)nc(N1CCCC1)c1ccsc12
IC50 [2, 3]: > 10 µM

O=C(O)c1ccc2c(c1)nc(Nc1ccc(Cl)cc1)c1ccsc12
IC50 [2, 3]: > 10 µM

O=C(O)c1ccc2c(c1)nc(NCCN1CCOCC1)c1ccsc12
IC50 [2, 3]: > 10 µM

COc1ccc(Nc2nc3cc(C(=O)O)ccc3c3sccc23)c(OC)c1
IC50 [2, 3]: > 10 µM

CS(=O)(=O)NC(=O)c1ccc2c(c1)nc(Nc1ccccc1)c1ccsc12
IC50 [2, 3]: > 10 µM

O=C(O)c1ccc2c(c1)nc(N1CCc3ccccc31)c1ccsc12
IC50 [2, 3]: > 10 µM

O=C(O)c1ccc2c(c1)nc(Nc1cccc(Oc3ccccc3)c1)c1ccsc12
IC50 [2, 4]: > 10 µM

O=C(NCCCO)c1ccc2c(c1)nc(NCCCO)c1ccsc12
IC50 [2, 3]: > 10 µM

O=C(O)c1ccc2c(c1)nc(Nc1cccc(C(=O)NC3CC3)c1)c1ccsc12
IC50 [2, 4]: > 10 µM

O=C(O)c1ccc2c(c1)nc(NCCc1ccccc1)c1ccsc12
IC50 [2, 3]: > 10 µM

O=C(O)c1ccc2c(c1)nc(Nc1cccc(O)c1)c1ccsc12
IC50 [2, 3]: > 10 µM

CN(C)CCNc1nc2ccccc2c2sccc12
IC50 [2, 3]: 2 µM

O=C(O)c1ccc2c(c1)nc(NC1CC1)c1ccsc12
IC50 [2, 3]: > 10 µM
